Assay results: patent EP4585216A1, “HETEROCYCLIC COMPOUNDS FOR THE TREATMENT OF FATTY LIVER DISEASE” (ScandiEdge Therapeutics AB, priority 2024, dated 2025)
“And” between values parts separate entries of the source, which are not always exact repeats. Equal entries are not always repeated. “Also recorded” adds a separate entry of the source.

How the values were obtained:
[1] = biological target: T1, pyruvate kinase liver (PKL) (Homo sapiens, UniProt P30613); test: Pyruvate kinase activity in HepG2 PKM2 CRISPR KO protein lysate; assay type: biochemical
T1 construct: endogenous in cells; host or cells: HepG2 PKM2 CRISPR KO (HepG2 KO) cells; lysate in CelLytic M or treated whole cells
T1 sequence (P30613 1-543 isoform P30613-2): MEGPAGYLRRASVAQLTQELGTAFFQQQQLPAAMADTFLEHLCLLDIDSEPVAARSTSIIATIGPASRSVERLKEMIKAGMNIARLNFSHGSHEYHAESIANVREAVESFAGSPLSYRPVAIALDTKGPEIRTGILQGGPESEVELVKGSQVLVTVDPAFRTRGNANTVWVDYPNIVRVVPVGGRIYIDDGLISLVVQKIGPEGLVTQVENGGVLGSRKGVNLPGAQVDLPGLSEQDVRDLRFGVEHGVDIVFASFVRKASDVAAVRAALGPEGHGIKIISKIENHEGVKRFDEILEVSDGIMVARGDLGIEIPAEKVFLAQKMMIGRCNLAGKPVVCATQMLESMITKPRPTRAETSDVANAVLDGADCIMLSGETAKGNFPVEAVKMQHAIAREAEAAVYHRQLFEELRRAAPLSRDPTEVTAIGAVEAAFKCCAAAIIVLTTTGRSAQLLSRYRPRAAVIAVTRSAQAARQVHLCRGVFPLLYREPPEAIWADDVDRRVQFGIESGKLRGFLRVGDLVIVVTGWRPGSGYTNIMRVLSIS
Procedure: (§1) HepG2 WT and HepG2 KO cells were lysed, and protein lysate was prepared with CelLytic M (C2978, Sigma-Aldrich) lysis buffer. Protein lysate was treated with 10 µM of the drugs and the pyruvate kinase activity on protein lysate was measured using Pyruvate Kinase Assay Kit (ab83432, abeam) following manufacturer's instruction. 2×10^4 HepG2 WT cells and 1×10^5 HepG2 KO cells were seeded into a 96-well plate for measuring pyruvate kinase activity in the cells. The cells were treated with 10-20µM of drugs for 4h and washed with 250µl PBS. Cells were lysed with 50 µl PK assay buffer (ab83432, abcam) and start reaction and kinetic O.D measurement was performed on 50µl PK assay buffer containing the assay component (ab83432, abcam). O.D values were measured with microplate reader (Hidex Sense Beta Plus) at 570nm wavelength. DMSO was used as control.
(§2) The effect of the target compounds was studied on liver cell line HepG2. HepG2 expresses two different pyruvate kinases (PK), pyruvate kinase muscle (PKM2) and pyruvate kinase liver (PKL). While most cells express PKM, liver cells further express PKL. […] In addition to HepG2 KO cell, HepG2 wild-type (HepG2 WT) cells were also used.

pyruvate kinase (PK) [2] = test: Pyruvate kinase activity in HepG2 WT protein lysate; assay type: biochemical; conditions: 10 µM
Procedure: as §1, §2

[3] = biological target: T1, pyruvate kinase liver (PKL); test: Pyruvate kinase activity in treated HepG2 PKM2 CRISPR KO cells; assay type: cell-based; conditions: 20 µM for 4 h
Procedure: as §1, §2

pyruvate kinase (PK) [4] = test: Pyruvate kinase activity in treated HepG2 WT cells; assay type: cell-based; conditions: 20 µM for 4 h
Procedure: as §1, §2

HepG2 cells [5] = test: TAG measurement in DNL steatosis model; assay type: cell-based
Procedure: (§3) HepG2 wild type cells were purchased from genome engineering company Synthego. Cells were maintained with growth media RPMI 1640 (R2405, Sigma-Aldrich) and supplemented with 10 % fetal bovine serum (FBS, F7524, Sigma-Aldrich), 1 % penicillin-streptomycin (P/S media, P4333, Sigma-Aldrich). Steatosis induction media was prepared as DMEM high glucose (D0819, Sigma-Aldrich) with 10% FBS, 1% P/S media supplemented with 10µg/ml insulin (I9278, Sigma-Aldrich), and 10µM T0901317 (T2320, Sigma-Aldrich) for one week. HepG2 cells were seeded 6×10^4 cells per well into a 96-well plate for TAG and MTT assay after steatosis and 1×10^6 cells per well into 6-well plate for western blot analysis after steatosis. HepG2 cells were incubated with steatosis induce media (SM) for one week by 3 day + 2 day + 2 day with total three times media exchange.
(§4) HepG2 cells were seeded at 6×10^4 cells per well into 96-well plate and induced steatosis for one week with designated concentration of small molecules (this will be referred to as a DNL steatosis model). After steatosis induction, cells were washed with 200 µl of PBS and triglyceride contents was measured by Triglyceride Assay Kit - Quantification (ab65336, Abeam) following manufacturer's instruction. Optical density (O.D) values were detected with microplate reader at 570 nm (Hidex Sense Beta Plus).
(§5) 5 mg/ml MTT (M2128, Sigma-Aldrich) solution in PBS (10 µL) was added to each well for MTT assay. After 1 hr, MTT solution and all media were removed from the wells. 100 µl of DMSO was added and mixed to dissolve the formazan crystals. Cell viability was analysed by measuring the absorbance of the dissolved formazan in a microplate reader at a wavelength of 570 nm with microplate reader (Hidex Sense Beta Plus). DMSO was used as control.

HepG2 cells [6] = test: MTT assay (cell viability) in DNL steatosis model; assay type: cell-based
Procedure: as §3, §4, §5

PKL [7] = test: Western blot of DNL steatosis model, PKL expression; assay type: cell-based; conditions: 5 µM
Procedure: as §3
(§6) After steatosis induction with designated concentration of compounds, whole cell lysate was prepared with CelLytic M (C2978, Sigma-Aldrich) buffer. SDS PAGE was performed on Mini-PROTEAN® TGX™ Precast Gels (Bio-Rad) and transferred using Trans-Blot® Turbo™ Transfer System (Bio-Rad). […] Protein band was detected with ImageQuantTMLAS 500 (29-0050-63, GE). […]

[8] = test system: fatty acid synthase (FASN); test: Western blot of DNL steatosis model, FASN expression; assay type: cell-based; conditions: 5 µM
Procedure: as §3, §6

PKM2 [9] = test: Western blot of DNL steatosis model, PKM2 expression; assay type: cell-based; conditions: 5 µM
Procedure: as §3, §6

PKM2 [10] = biological target: T2, PKM2 (Homo sapiens, UniProt P14618); test: Cellular thermal shift assay (Cetsa), PKM2; assay type: cell-based; conditions: HepG2 WT cells, 10 and 20 µM for 2 h, heat shock 60°C 5 min
T2 construct: host or cells: HepG2 wild-type cells
T2 sequence (P14618 2-531 limits assumed): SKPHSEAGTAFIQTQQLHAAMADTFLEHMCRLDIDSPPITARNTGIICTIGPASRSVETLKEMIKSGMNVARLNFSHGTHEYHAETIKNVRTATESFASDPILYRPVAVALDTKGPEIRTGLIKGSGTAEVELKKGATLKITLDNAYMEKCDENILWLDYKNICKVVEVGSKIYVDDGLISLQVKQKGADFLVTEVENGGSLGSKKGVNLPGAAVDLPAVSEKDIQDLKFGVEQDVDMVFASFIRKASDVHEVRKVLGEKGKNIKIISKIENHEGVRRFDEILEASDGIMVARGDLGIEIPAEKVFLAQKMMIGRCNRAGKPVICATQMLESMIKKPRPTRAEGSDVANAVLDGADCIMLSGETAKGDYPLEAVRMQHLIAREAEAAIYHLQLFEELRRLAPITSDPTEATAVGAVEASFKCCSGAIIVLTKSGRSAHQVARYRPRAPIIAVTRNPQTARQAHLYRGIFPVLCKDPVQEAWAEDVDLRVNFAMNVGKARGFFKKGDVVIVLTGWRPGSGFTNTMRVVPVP
Procedure: (§7) HepG2 WT cells were trypsinized and transferred into 1.5ml tube at a concentration of 500,000 cells per ml. The cells were treated with 10µM and 20µM SET-62 in an 1.5 ml tube and incubated for 2 h at 37°C in an CO2 incubator. The tubes were exposed to heat shock at 60°C for 5 min with a pre-heated heat block. After centrifugation of the heated cells at 13,000 rpm for 1 min, the cells were lysed with 50 µl of Native lysis Buffer (ab156035, abeam). Centrifugation was performed again to purify soluble proteins in the lysed solution and 9 µl of each group were analysed using western blot. DMSO was used as control.

PKL [11] = biological target: T3, PKL (Homo sapiens, UniProt P30613); test: Cellular thermal shift assay (Cetsa), PKL; assay type: cell-based; conditions: HepG2 WT cells, 10 and 20 µM for 2 h, heat shock 60°C 5 min
T3 construct: host or cells: HepG2 wild-type cells
T3 sequence (P30613 1-543 isoform P30613-2): as the sequence (P30613 1-543 isoform P30613-2) above
Procedure: as §7

O=S1(=O)c2cc(O)c(O)cc2-c2ccc(C(F)(F)F)cc2N1Cc1ccccc1 [SET-62, 6-benzyl-2,'3-dihydroxy-8-(trifluoromethyl)-6H-dibenzo[c,e][1,2]thiazine 5,5-dioxide]
PK activity of HepG2 KO protein lysate (in words) ([1]; 10 µM, batches 4 and 5): highest inhibitory effect
inhibition at 10 µM ([1]; compared to the control (DMSO), read-out: reduction in PK activity of HepG2 KO protein lysate): 57%
PK activity of HepG2 WT protein lysate (in words) (pyruvate kinase (PK) [2]; batches 4 and 5): highest inhibitory effect
reduction in PK activity of HepG2 WT protein lysate (pyruvate kinase (PK) [2]; compared to the control (DMSO)): 59.9%
decrease in PK activity of HepG2 KO cells [3]: 32.8% and 24.4%
effect on PK activity in HepG2 KO cells (in words) [3]: decreased the PK activity
effect on PK activity in HepG2 WT cells (in words) (pyruvate kinase (PK) [4]): slightly increased the PK activity
increase in PK activity of HepG2 WT cells (pyruvate kinase (PK) [4]): 6% and 9.0%
TAG/MTT reduced to (HepG2 cells [5]; 0.625 µM for one week): 15.0%
TAG/MTT ratio reduced to (HepG2 cells [5]; 5 µM for one week): 49.4% and 61.3%
TAG content (in words) (HepG2 cells [5]; 10 µM for 1 week): reduced TAG content
TAG/MTT ratio (HepG2 cells [5]; 10 µM for 1 week): 92.9%
cell viability (in words) (HepG2 cells [6]; 5 µM for 1 week (batch 4)): increased the cell viability
cell viability (MTT assay, in words) (HepG2 cells [6]; 10 µM for 1 week): decreased cell viability; also recorded: strong toxicity
cell viability / toxicity (in words) (HepG2 cells [6]; lower doses (5 µM, 2.5 µM, 1.25 µM, 0.625 µM), one week): did not exhibit any toxicity
PKL protein expression level (PKL [7]): decreased
FASN protein expression level [8]: decreased
expression of PKM2 (PKM2 [9]): slight increase
increase of the solubility of PKM2 (PKM2 [10]): 12-18%
decrease of the solubility of PKL (PKL [11]): ~ 38%
